# Laboratory results as given in US20240246916A1, “7-NITRO-8-HYDROXYQUINOLINE DERIVATIVES, PREPARATION METHOD THEREFORE AND MEDICAL USE THEREOF” (Jiangsu Yahong Meditech Co., Ltd., priority 2021, published 2024).
# Key:
# Assay type in all cases: cell-based
# [1] = MIC by micro broth dilution (CLSI), Klebsiella pneumoniae; details: for MIC50 / MIC90: Standard strain; for MIC: Standard strain ATCC43816
# From the text: The test bacteria were one strain of clinically isolated carbapenem-resistant Escherichia coli, two strains of carbapenem-resistant Acinetobacter baumannii, two strains of methicillin-resistant Staphylococcus aureus, two strains of sensitive Staphylococcus aureus, and 7 strains of Klebsiella pneumoniae. Duplicate strains isolated from the same patient were eliminated. There were also […] quality control strains Escherichia coli ATCC25922, Acinetobacter baumannii ATCC19606, Staphylococcus aureus ATCC29213, Klebsiella pneumoniae ATCC BAA-1705, ATCC 43816, ATCC BAA-2472, ATCC-BAA-1898, ATCC-BAA-1899, NCTC 13440 and ATCC-BAA-2470. There were 24 strains in total.
# According to the recommendations of relevant documents of the American Clinical and Laboratory Standards Institute (CLSI), the micro broth dilution method was used to determine the MIC of the compounds of the present invention against clinically isolated strains. • 3.1 Formulation of antibacterial drug: All the compounds of the present invention were dissolved in DMSO. The drug concentration range was 128 mg/L to 0.06 mg/L. • 3.2 Culture medium: The drug susceptibility test used cation adjusted Mueller-Hinton broth (CAMHB). • 3.3 Amount of inoculum: The test bacteria cultured overnight were adjusted to 0.5 McFarland turbidity by the direct colony suspension method, and diluted 100 folds, the final inoculum amount was 10^5 CFU/mL. • 3.4 Culture conditions: The test bacteria were cultured at 35±2° C. for 20 hours in air.
# The drug susceptibility test results were interpretated by reference to CLSI 2019 M100 29th edition criteria.
# The quality control strains of the drug susceptibility test were Escherichia coli ATCC 25922, Acinetobacter baumannii ATCC 19606, Staphylococcus aureus ATCC 29213, Klebsiella pneumoniae ATCC BAA-1705, ATCC 43816, ATCC BAA-2472, ATCC-BAA-1898, ATCC-BAA-1899, NCTC 13440 and ATCC-BAA-2470.
# The results of drug susceptibility test were statistically analyzed by WHONET software (version 5.6).
# [2] = test system: Acinetobacter baumannii (carbapenem-resistant clinical isolates; ATCC19606); assay: MIC by micro broth dilution (CLSI), Acinetobacter baumannii; details: Acinetobacter baumannii; for MIC50 / MIC90: ATCC19606, Clinical strain; for MIC50: read-out: MIC50; for MIC90: read-out: MIC90; for MIC: Standard strain ATCC19606, read-out: MIC
# In short: (§1)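 CLSI broth microdilution in cation-adjusted Mueller-Hinton broth, compounds in DMSO at 128 to 0.06 mg/L. Inoculum 10^5 CFU/mL from 0.5 McFarland suspensions diluted 100-fold; 35±2 °C, 20 h in air. Clinical isolates plus ATCC/NCTC quality-control strains; interpretation per CLSI 2019 M100.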
# [3] = test system: Escherichia coli (carbapenem-resistant clinical isolate; ATCC25922); assay: MIC by micro broth dilution (CLSI), Escherichia coli; details: Escherichia coli; for MIC50 / MIC90: ATCC25922, Clinical strain; for MIC50: read-out: MIC50; for MIC90: read-out: MIC90; for MIC: Standard strain ATCC25922, read-out: MIC
# In short: as §1
# [4] = test system: Staphylococcus aureus (methicillin-resistant and sensitive clinical isolates; ATCC29213); assay: MIC by micro broth dilution (CLSI), Staphylococcus aureus; details: for MIC50 / MIC90: Clinical strain; for MIC50: read-out: MIC50; for MIC90: read-out: MIC90; for MIC: Standard strain ATCC29213, read-out: MIC
# In short: as §1
# [5] = test system: Mouse prostate cancer cell line RM1; assay: Inhibitory activity on cancer cells, CellTiter-Glo viability, RM1; details: 72 hours treatment
# In short: (§2)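 HUVEC seeded at 2000, UM-UC-3 and RM-1 at 3000, LNCaP at 5000 cells/well, each in its own medium, 24 h before dosing. Compounds: 8-point 2.5-fold dilutions from 100 μmol, 72 h at 37 °C, 5% CO2. CellTiter-Glo luminescence; IC50 from growth-inhibition curves.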
# [6] = test system: Endothelial cell line HUVEC; assay: Inhibitory activity on cells, CellTiter-Glo viability, HUVEC; details: Homo sapiens, 72 hours treatment
# In short: as §2
# [7] = test system: Bladder cancer cell line UM-UC-3; assay: Inhibitory activity on cancer cells, CellTiter-Glo viability, UM-UC-3; details: Homo sapiens, UMUC3, 72 hours treatment
# In short: as §2
# [8] = test system: Prostate cancer cell line LNcaP; assay: Inhibitory activity on cancer cells, CellTiter-Glo viability, LNcaP; details: Homo sapiens, 72 hours treatment
# In short: as §2
Compound,MIC50 [1] [mg/L],MIC90 [1] [mg/L],MIC50 [2] [mg/L],MIC90 [2] [mg/L],MIC50 [3] [mg/L],MIC90 [3] [mg/L],MIC50 [4] [mg/L],MIC90 [4] [mg/L],MIC [1] [mg/L],MIC [2] [mg/L],MIC [3] [mg/L],IC50 [5] [µM],IC50 [7] [µM],MIC [4] [mg/L],IC50 [8] [µM],IC50 [6] [µM]
"Cc1ccnc2c(O)c([N+](=O)[O-])ccc12 [Example 10, 4-Methyl-7-nitroquinolin-8-ol]",> 64,> 64,32,64,32,32,16,16,,,,,,,,
"Cc1cnc2c(O)c([N+](=O)[O-])ccc2c1 [Example 8, 3-Methyl-7-nitroquinolin-8-ol]",32,32,8,16,4,4,8,8,,,,3.18,3.77,,9.3,5.7
"N#Cc1cc([N+](=O)[O-])c(O)c2ncccc12 [Example 9, 8-Hydroxy-7-nitroquinoline-5-carbonitrile]",64,> 64,> 64,> 64,> 64,> 64,> 64,> 64,,,,,,,,
"O=[N+]([O-])c1cc(I)c2cccnc2c1O [Example 3, 5-Iodo-7-nitroquinolin-8-ol]",> 64,> 64,> 64,> 64,,,,,,,,,,,,
"Cc1cc2cccnc2c(O)c1[N+](=O)[O-] [Example 2, 6-Methyl-7-nitroquinolin-8-ol]",32,64,8,8,16,64,4,4,,,8,,3.88,,5.97,7.06
"Cc1ccc2ccc([N+](=O)[O-])c(O)c2n1 [Example 6, 2-Methyl-7-nitroquinolin-8-ol]",> 64,> 64,> 64,> 64,64,64,64,64,,,,,,,,
"O=[N+]([O-])c1ccc2ccc(F)nc2c1O [Example 5, 2-Fluoro-7-nitroquinolin-8-ol]",> 64,> 64,> 64,> 64,32,32,64,64,,,,,,,,
"O=[N+]([O-])c1cc(F)c2c(N3CCC(F)(F)CC3)ccnc2c1O [Example 69, 4-(4,4-Difluoropiperidin-1-yl)-5-fluoro-7-nitroquinolin-8-ol]",,,> 128,> 128,> 128,> 128,2,2,,> 128,> 128,2.23,4.81,4,1.33,2.67
"O=[N+]([O-])c1ccc2c(C3CC3)ccnc2c1O [Example 11, 4-Cyclopropyl-7-nitroquinolin-8-ol]",64,64,16,128,8,128,8,8,,> 128,> 128,3.42,2.71,4,1.67,2.97
"COC1CCN(c2ccnc3c(O)c([N+](=O)[O-])cc(Cl)c23)CC1 [Example 38, 5-Chloro-4-(4-methoxypiperidin-1-yl)-7-nitroquinolin-8-ol]",,,128,128,> 128,> 128,8,16,,128,128,3,6.72,8,1.87,2.36
"CN(C)C(=O)N1CCN(c2ccnc3c(O)c([N+](=O)[O-])cc(Cl)c23)CC1 [Example 35, 4-(5-Chloro-8-hydroxy-7-nitroquinolin-4-yl)-N,N-dimethylpiperazine-1-carboxamide]",,,> 128,> 128,> 128,> 128,> 128,> 128,,> 128,> 128,> 50,49.7,> 128,31.2,27
"N#Cc1ccnc2c(O)c([N+](=O)[O-])ccc12 [Example 76, 8-hydroxy-7-nitroquinoline-4-carbonitrile]",,,32,64,32,64,32,32,,32,32,13.3,38.8,32,15.2,18

# Continued, in another order:
MIC50 [1] [mg/L],MIC90 [1] [mg/L],MIC50 [2] [mg/L],MIC90 [2] [mg/L],MIC50 [3] [mg/L],MIC90 [3] [mg/L],MIC50 [4] [mg/L],MIC90 [4] [mg/L],MIC [1] [mg/L],MIC [2] [mg/L],MIC [3] [mg/L],IC50 [5] [µM],IC50 [7] [µM],MIC [4] [mg/L],IC50 [8] [µM],Compound,IC50 [6] [µM]
8,16,4,4,8,16,4,4,4,2,4,4.3,9.2,4,5.1,"O=[N+]([O-])c1ccc(O)c2ncccc12 [Nitroxoline, nitroxoline, reference compound]",4.5
16,64,4,8,16,16,4,4,8,16,8,8.13,9.33,,10.9,"O=[N+]([O-])c1ccc2cccnc2c1O [Example 1, 7-Nitroquinolin-8-ol]",14.9
,,> 128,> 128,> 128,> 128,1,2,,> 128,> 128,4.25,2.17,1,1.51,"Cl.O=[N+]([O-])c1cc(Cl)c2c(-c3ccccc3)ccnc2c1O [Example 51, 5-chloro-7-nitro-4-phenylquinolin-8-ol hydrochloride]",1.71
,,128,> 128,128,> 128,16,16,,> 128,32,47.2,44.5,> 128,32.4,"CN(C)C(=O)N1CCN(c2ccnc3c(O)c([N+](=O)[O-])ccc23)CC1 [Example 25, 4-(8-Hydroxy-7-nitroquinolin-4-yl)-N,N-dimethylpiperazine-1-carboxamide]",47.6
,,> 128,> 128,> 128,> 128,32,32,,> 128,> 128,> 50,> 50,32,> 50,"CNC(=O)N1CCN(c2ccnc3c(O)c([N+](=O)[O-])cc(Cl)c23)CC1 [Example 44, 4-(5-Chloro-8-hydroxy-7-nitroquinolin-4-yl)-N-methylpiperazine-1-carboxamide]",> 50
